Data taken from patent US20110065582A1, “ENVIRONMENTALLY FRIENDLY SLOW-RELEASE PESTICIDE FORMULATIONS” (Consejo Superior De Investigaciones Cientificas, priority 2008, published 2011).

Tests used:
[1] = Adsorption of sulfentrazone in PC vesicle-montmorillonite suspension as a function of buffer pH; format: physicochemical; conditions: 5 g/L montmorillonite, 6 mM PC, 2.6 mM SFZ
Protocol: The formulations of PC with different herbicides were prepared by dissolving various quantities of the herbicide in question in a solution of 6 mM PC through sonication, and subsequent adding of montmorillonite. The herbicides employed were alachlor (hydrophobic in nature), atrazine (of basic nature) and sulfentrazone (of acid nature). […] The added amounts of the herbicides were 1.5-14 mM for alachlor, 1.8-2.4 mM for atrazine and 1.3-5.7 mM for sulfentrazone. The clay concentration was 1.6, 5 or 10 g/L. Following agitation during 24 h the suspensions were centrifuged at 20000 g during 10 min, the remaining herbicide in the supernatants was analysed, and the precipitates were lyophilised giving rise to the formulations. The herbicides were analysed by HPLC (Shimadzu Model 10A) fitted with a PDA detector. The reverse phase column was a Kromasil 100 C18 of 15 cm. The flow speed was 1.0 mL min−1. […]
The final concentrations of the formulations and the percentage in weight of the herbicides in the formulation are shown in Table 2. […] The active ingredient content was determined by means of sonication of 5 mg of each formulation in 20 ml of methanol. The suspensions were centrifuged and the herbicide in the supernatants was analysed. […]

[2] = Speciation of SFZ in solution; format: physicochemical
Source text: A primordial factor in the encapsulation of acidic molecules is the pH of the solution. […] However, small anionic species can also permeabilise the bilayers of PC. In fact, SFZ adsorption at pH 7.0 was 4 times higher than the amount of neutral species in solution.

[3] = 96 h of irradiation; cited from earlier work

Row | SMILES | adsorption of SFZ ([1]; buffer of pH 5.0) [%] | adsorption of SFZ ([1]; buffer of pH 7.0 Trizma-HCl 1 M) [%] | speciation in solution: anions ([2]; pH 5.0) [%] | speciation in solution: neutral molecules ([2]; pH 5.0) [%] | speciation in solution: anionic species ([2]; pH 7.0) [%] | speciation in solution: neutrals ([2]; pH 7.0) [%] | activity retained following irradiation [3] [%]
1 | Cc1nn(-c2cc(NS(C)(=O)=O)c(Cl)cc2Cl)c(=O)n1C(F)F [SFZ, sulfentrazone] | 69.5 | 11.8 | 2.7 | 97.3 | 73.4 | 26.6 | 
2 | CCCN(CCC)c1c([N+](=O)[O-])cc(C(F)(F)F)cc1[N+](=O)[O-] [free trifluralin, trifluralin] |  |  |  |  |  |  | 30
